Where “and” joins values, the source holds several entries; their conditions need not be identical. Identical values can stand only once.

The results in this text go back to US12414560B2, “Pesticidal compositions and related methods” (CJB Applied Technologies LLC, priority 2017, dated 2025).

The subject of assay [1] is resistant strains of Rhizoctonia solani (brown patch, stem rot, and/or root rot). Nature of the assay: Petri dish test (zone of inhibition), resistant strains of Rhizoctonia solani. To be noted: organic solvent composition (where used) 6 fluid ounces/acre; for % Reduction in Radial Growth: 48 hours, vs untreated. The class given is cell-based. On the procedure:
Petri dish tests (i.e., zone of inhibition tests) were conducted to compare the efficacy of tebuconazole (demethylation inhibitor, […], a triazole, and member of Fungicide Resistance Action Committee (FRAC) Group 3) against resistant strains of Rhizoctonia solani (brown patch, stem rot, and/or root rot). Various organic solvents (adjuvants) were utilized at 6 fluid ounces/acre and compared with just the active ingredient alone. The results are summarized in Table 19 and show the organic solvents provide a substantial resistant strain growth reduction compared to a FRAC Group 3 active ingredient utilized alone.

For assay [2], the system named is resistant strain of Didymella sp. (gummy stem rot). Nature of the assay: Petri dish test (zone of inhibition), radial growth, resistant strain of Didymella sp. The assay is classed as cell-based. On the procedure: (§1) Petri dish tests (i.e., zone of inhibition tests) were conducted to compare the efficacy of azoxystrobin against both sensitive/susceptible and resistant strains of Didymella sp. (gummy stem rot).
Petri dish tests (i.e., zone of inhibition tests) were conducted to compare four rates of three adjuvant compositions (ADJ1, AJD2, and ADJ3 (N-methylpyrrolidone)) on sensitive and resistant strains of Didymella at a fixed treatment rate with a FRAC Group 11 fungicide, azoxystrobin.
Petri dish tests (i.e., zone of inhibition tests) were conducted to compare the efficacy of azoxystrobin (a strobilurin, quinone outside inhibitor (QOI), and member of Fungicide Resistance Action Committee (FRAC) Group 11) against resistant strains of Didymella sp. (gummy stem rot). Various organic solvents (adjuvants) were utilized at varying rates (6 fluid ounces/acre or 3 ounces/acre).

The test system of assay [3] is sensitive/susceptible strain of Didymella sp. (gummy stem rot). Nature of the assay: Petri dish test (zone of inhibition), radial growth, sensitive/susceptible strain of Didymella sp. The class given is cell-based. To be noted: for radial growth, 12 hours / radial growth, 24 hours / radial growth, 36 hours / radial growth, 18 hours / radial growth, 48 hours: sensitive strain. On the procedure:
as §1
Petri dish tests (i.e., zone of inhibition tests) were conducted to compare four rates of three adjuvant compositions (ADJ1, AJD2, and ADJ3 (N-methylpyrrolidone)) on sensitive and resistant strains of Didymella at a fixed treatment rate with a FRAC Group 11 fungicide, azoxystrobin. […]

Assay [4] deals with azoxystrobin resistant strain of Didymella. The experiment in a line: Watermelon Didamella (Gummy Stem Rot) field test, inoculated plants, disease severity rating. Also noted: key: based on counts of active fungal infection sites on leaves. The assay is classed as in vivo, Didymella on watermelon plants. The following applies: adjuvant rate 6 fl oz/acre. On the procedure: Watermelon plants were inoculated with an azoxystrobin resistant strain of Didymella. The watermelon plants were then treated with: (a) a FRAC Group 11 fungicide, azoxystrobin alone; (b) azoxystrobin plus ADJ1; (c) azoxystrobin plus ADJ2; (d) azoxystrobin plus a typical commercial adjuvant (commercially available as Ad-Spray™); and (e) azoxystrobin plus chlorothalonil and commercial adjuvant (commercially available as Ad-Spray™). Disease severity ratings were taken and illustrated improved disease control of resistant strain with ADJ1 and ADJ2 compared to treatment with azoxystrobin alone, azoxystrobin plus commercial adjuvant, and azoxystrobin plus chlorothalonil and commercial adjuvant, especially at lower rates of azoxystrobin. Severity rating were based on multiple counts of active fungal infection sites on the leaves of the plants.

Assay [5] deals with natural strains of Didymella. Nature of the assay: Watermelon Didymella (Gummy Stem Rot) field test, natural infection, disease severity rating. The class given is in vivo, Didymella on watermelon plants. On the procedure: Watermelon plants were grown in normal field conditions subject to infection by natural strains of Didymella. The watermelons where then treated with: (a) a FRAC Group 11 fungicide, azoxystrobin alone; (b) ADJ1 alone; (c) azoxystrobin plus ADJ2; (d) azoxystrobin plus a typical commercial adjuvant (commercially available as Ad-Spray™); and (e) azoxystrobin plus chlorothalonil and commercial adjuvant. Disease severity ratings were taken and illustrated improved disease control of natural strains with ADJ1 compared to treatment with azoxystrobin alone or azoxystrobin plus commercial adjuvant, and equivalent control to azoxystrobin plus chlorothalonil and commercial adjuvant.

Assay [6] concerns natural strains of Cercospora (known to be resistant to azoxystrobin). The experiment in a line: Soybean Cercospora (Frog Eye Leaf Spot) field test, severity ratings. The assay is classed as in vivo, Cercospora on soybean plants. To be noted: azoxystrobin 0.5×. On the procedure: Soybean plants were grown in normal field conditions subject to infection by natural strains of Cercospora (known to be resistant to azoxystrobin) then treated with: (a) a FRAC Group 11 fungicide, azoxystrobin alone; (b) azoxystrobin plus ADJ1; (c) azoxystrobin plus ADJ2; (d) azoxystrobin plus a typical commercial adjuvant (commercially available as Preference®). Disease severity ratings were taken and illustrated improved disease control with ADJ1 and ADJ2 compared to treatment with azoxystrobin alone or azoxystrobin plus commercial adjuvant. Duncan Multiple Range treatment of the data (indicated by “a,” “b,” “c,”, etc.) confirmed statistically valid different between the treatment results.

In assay [7] the test system is Morning Glory (MG). The experiment in a line: Herbicide burndown testing, Morning Glory. Further: test concentration or dose not given here. The following applies: in vivo. On the procedure:
(§2) Burndown (BD) testing was conducted on Morning Glory (MG), Goosegrass (GG), Florida Beggarweed (FB) with an herbicide, Gramoxone® (paraquat—N,N′-dimethyl-4,4′-bipyridinium dichloride). Various amounts of Crop Oil Concentrate™ (COC) and an organic solvent adjuvant, Benzyl Acetate (BA), were utilized in conjunction with the herbicide. Crop Oil Concentrate™ (COC) is commonly used to enhance the deposition and spreading of herbicides on the leaf surface. The Crop Oil Concentrate™ (COC) included paraffinic petroleum oil, tall oil fatty acids and alkylphenol ethoxylates. The results are summarized in Table 20 and show a substantial increase in burndown rate when the organic solvent adjuvant is combined with an herbicide. The results also show a substantial increase in burndown rate compared to the combination of herbicide and Crop Oil Concentrate™ (COC).

Assay [8] concerns Goosegrass (GG). The experiment in a line: Herbicide burndown testing, Goosegrass. Further: test concentration or dose not given here. The following applies: in vivo. The procedure:
as §2

Setting [9] is: azoxystrobin 5.5 fl oz/acre, no additive.
[10] abbreviates: azoxystrobin 11 fl oz/acre, no additive.
The mark [11] stands for this setting: azoxystrobin 16 fl oz/acre, no additive.
[12] abbreviates: azoxystrobin 22 fl oz/acre, no additive.
Where [13] appears, read: azoxystrobin application rate 5.5.
Setting [14] is: azoxystrobin application rate 11.
Setting [15] is: azoxystrobin application rate 22.
Setting [16] is: azoxystrobin 5.5 fl oz/acre, adjuvant rate 6 fl oz/acre.
The mark [17] stands for this setting: azoxystrobin 11 fl oz/acre, adjuvant rate 6 fl oz/acre.
The mark [18] stands for this setting: ADJ1 0.25× (adjuvant rate 4 fl oz/acre), Quadris 0.
Setting [19] is: adjuvant 4 fl oz/acre (ADJ1 0.5×), Quadris 0.
The mark [20] stands for this setting: adjuvant 6 fl oz/acre ([…]), Quadris 0.
The mark [21] stands for this setting: adjuvant 8 fl oz/acre (1×), Quadris 0.
[22] abbreviates: azoxystrobin 0, additive alone (additive rate 0).
Setting [23] is: adjuvant 2 fl oz/acre (0.25×), Quadris 0.
Where [24] appears, read: adjuvant 4 fl oz/acre (0.5×), Quadris 0.
The mark [25] stands for this setting: adjuvant 8 fl oz/acre (ADJ1 1×), Quadris 0.
[26] abbreviates: azoxystrobin 0, adjuvant only 6 fl oz/acre.

For `CC(C)(C)C(O)(CCc1ccc(Cl)cc1)Cn1cncn1` (stereo not shown) [Tebuconazole], the “Radial growth (cm) at 48 hours” value is given as 10.72 cm in assay [1] (Tebuconazole 2 oz/acre) and 7.8 cm in assay [1] (Tebuconazole 4 oz/acre). The “% Reduction in Radial Growth” value in assay [1] (Tebuconazole 2 oz/acre) amounted to 32%; in assay [1] (Tebuconazole 4 oz/acre), 50%.
As for `CO/C=C(/C(=O)OC)c1ccccc1Oc1cc(Oc2ccccc2C#N)ncn1` [azoxystrobin], the “radial growth, 12 hours” value is reported as 31 cm in assay [2] (setting [9]); 30 cm in assay [2] (setting [10]); 29 cm in assay [2] (setting [11]); 22 cm in assay [2] (setting [12]); 15.3 cm in assay [3] (setting [9]); 12.5 cm in assay [3] (setting [10]). Also, the “radial growth, 12 hours” value in assay [3] (setting [11]) is 13.4 cm; in assay [3] (setting [12]), 15.8 cm. In addition, the “radial growth, 24 hours” value in assay [2] (setting [9]) worked out at 48 cm; in assay [2] (setting [10]), 48 cm; in assay [2] (setting [11]) it was 47 cm; in assay [2] (setting [12]) it was 28 cm; in assay [3] (setting [9]), 24.9 cm; in assay [3] (setting [10]) it was 16.9 cm. Further, the “radial growth, 24 hours” value in assay [3] (setting [11]) turned out to be 20 cm; in assay [3] (setting [12]), 22.9 cm. In addition, the “radial growth, 36 hours” value is on record as 34.3 cm in assay [3] (setting [9]), 23.6 cm in assay [3] (setting [10]), 28 cm in assay [3] (setting [11]) and 31.9 cm in assay [3] (setting [12]). The “disease severity, Fourth Week Rating” value is listed as 82.8 in assay [4] (setting [13]); 65.7 in assay [4] (setting [14]); 16.3 in assay [4] (setting [15]); 80.8 in assay [5] (setting [16]); 76.8 in assay [5] (setting [17]). In addition, the “disease severity, One Week Rating” value was 9.2 in assay [4] (setting [13]); 13.3 in assay [4] (setting [14]); 1.1 in assay [4] (setting [15]); 2.1 in assay [5] (setting [16]); 1.1 in assay [5] (setting [17]). For the same compound, the “disease severity, Third Week Rating” value was found to be 63.3 in assay [4] (setting [13]); 42 in assay [4] (setting [14]); 4.8 in assay [4] (setting [15]); 59.4 in assay [5] (setting [16]); 49.5 in assay [5] (setting [17]). Besides, the “disease severity, Two Week Rating” value was 16.9 in assay [4] (setting [13]); 16.7 in assay [4] (setting [14]); 0.2 in assay [4] (setting [15]); 6.6 in assay [5] (setting [16]); 0 in assay [5] (setting [17]). Besides, in assay [6], the “Severity Ratings, August 31/Upper leaf” value is 10.3. Also, in assay [6], the “Severity Ratings, September 7/bottom leaf” value came out at 35.5. Moreover, the “Severity Ratings, September 7/higher Leaf” value in assay [6] is given as 16.3. For the same compound, in assay [6], the “Severity Ratings, September 7/middle leaf” value is recorded as 3.2. The “Severity Ratings, September 13/bottom leaf” value in assay [6] turned out to be 18. In addition, the “Severity Ratings, September 20/higher leaf” value in assay [6] amounted to 11.3.
As for `CC(=O)OCc1ccccc1` [ADJ1, benzyl acetate], the “radial growth, 18 hours” value in assay [2] (setting [18]) is 20.6 cm; in assay [2] (setting [19]) it was 22.6 cm; in assay [2] (setting [20]), 18.9 cm; in assay [2] (setting [21]), 16.7 cm; in assay [3] (setting [23]), 19.9 cm; in assay [3] (setting [24]), 17 cm. Besides, the “radial growth, 18 hours” value in assay [3] (setting [20]) and in assay [3] (setting [25]) was 15.7 cm throughout. The “radial growth, 24 hours” value amounted to 30.2 cm in assay [2] (setting [18]); 28.5 cm in assay [2] (setting [19]); 23.4 cm in assay [2] (setting [20]); 10.9 cm in assay [2] (setting [21]); 30 cm in assay [2] (setting [22]); 24.9 cm in assay [3] (setting [23]). Further, the “radial growth, 24 hours” value turned out to be 23.7 cm in assay [3] (setting [24]), 26.1 cm in assay [3] (setting [20]), 21.3 cm in assay [3] (setting [25]) and 41.1 cm in assay [3] (setting [22]). The “radial growth, 48 hours” value in assay [2] (setting [18]) is recorded as 51.2 cm; in assay [2] (setting [19]), 53.9 cm; in assay [2] (setting [20]), 45.9 cm; in assay [2] (setting [21]), 44.4 cm; in assay [3] (setting [23]), 47.9 cm; in assay [3] (setting [24]), 46 cm. The “radial growth, 48 hours” value in assay [3] (setting [20]) is 48.1 cm; in assay [3] (setting [25]), 50.1 cm. The “radial growth, 12 hours” value in assay [2] (setting [22]) is 25 cm; in assay [3] (setting [22]) it was 24 cm. Moreover, the “growth reduction, in words” value in assay [2] (text of Example 2) is recorded as “some efficacy but not at a commercial level control”. The “radial growth, 36 hours” value in assay [3] (setting [23]) worked out at 39.3 cm; in assay [3] (setting [24]), 32.3 cm; in assay [3] (setting [20]) it was 38.8 cm; in assay [3] (setting [25]), 40.6 cm; in assay [3] (setting [22]), 54 cm. The “control compared to azoxystrobin alone, in words” value in assay [3] (susceptible strain, equivalent of 2 oz/acre of ADJ1) is reported as “comparable control”. In addition, in assay [5] (ADJ1 only), the “disease reduction, in words” value is reported as “Some disease reduction”. Besides, the “disease severity, Fourth Week Rating” value in assay [5] (setting [26]) was 48.7. Further, the “disease severity, One Week Rating” value in assay [5] (setting [26]) is 1.1. The “disease severity, Third Week Rating” value in assay [5] (setting [26]) is given as 38.9. Further, in assay [5] (setting [26]), the “disease severity, Two Week Rating” value was 8.
In the case of `C[n+]1ccc(-c2cc[n+](C)cc2)cc1` [Paraquat], in assay [7], the “BD (MG) (%)” value is 51% and 50% and 81%. Also, the “BD (GG) (%)” value in assay [8] was 72% and 60% and 100%.
Turning to `CN1CCCC1=O` [ADJ3, N-methylpyrrolidone], in assay [2] (setting [22]), the “radial growth, 12 hours” value is recorded as 27 cm and the “radial growth, 24 hours” value was determined as 39 cm. In assay [3] (setting [22]), the “radial growth, 12 hours” value came to 22.8 cm; the “radial growth, 24 hours” value is recorded as 41 cm; the “radial growth, 36 hours” value is recorded as 54.1 cm.
